# According to patent US20230406843A1, “Progranulin Modulators and Methods of Using the Same” (ARKUDA THERAPEUTICS, priority 2020, published 2023):
# Test system: progranulin
# Experiment: Progranulin induction cellular assay (ELISA of secreted mouse PGRN)
# Type: cell-based
# Details: Mus musculus, BV-2, read-out: EC50 μM
# Summary of the method: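 Mouse primary microglia, primary cortical neurons and BV-2 cells are used. BV-2 cells are plated in 96-well format the day before, with a 1 h attachment and 16 h incubation. Progranulin secreted into the medium is quantified by ELISA.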
row,SMILES,EC50 [µM]
1,"COC[C@@]1(N)CC[C@@H](C(=O)N2CCc3ccccc3[C@@H]2c2ccc(F)cc2)OC1 [Compound 5217, ((2S,5S)-5-amino-5-(methoxymethyl)tetrahydro-2H-pyran-2-yl)((S)-1-(4-fluorophenyl)-3,4-dihydroisoquinolin-2(1H)-yl)methanone]",0.226
2,"COC[C@]1(N)CC[C@@H](C(=O)N2CCc3ccccc3[C@@H]2c2ccc(F)cc2)OC1 [Compound 5218, ((2S,5R)-5-amino-5-(methoxymethyl)tetrahydro-2H-pyran-2-yl)((S)-1-(4-fluorophenyl)-3,4-dihydroisoquinolin-2(1H)-yl)methanone]",0.12
3,"COC[C@]1(N)CC[C@H](C(=O)N2CCc3ccccc3[C@@H]2c2ccc(F)cc2)OC1 [Compound 5219, ((2R,5R)-5-amino-5-(methoxymethyl)tetrahydro-2H-pyran-2-yl)((S)-1-(4-fluorophenyl)-3,4-dihydroisoquinolin-2(1H)-yl)methanone]",0.006
4,"COC[C@@]1(N)CC[C@H](C(=O)N2CCc3ccccc3[C@@H]2c2ccc(F)cc2)OC1 [Compound 5220, ((2R,5S)-5-amino-5-(methoxymethyl)tetrahydro-2H-pyran-2-yl)((S)-1-(4-fluorophenyl)-3,4-dihydroisoquinolin-2(1H)-yl)methanone]",0.081
5,"CC(=O)N[C@@H]1CO[C@@H](C(=O)N2CCc3ccccc3[C@@H]2c2ccc(F)cc2)C[C@@H]1N [Compound 5427, N-((3S,4S,6R)-4-amino-6-((S)-1-(4-fluorophenyl)-1,2,3,4-tetrahydroisoquinoline-2-carbonyl)tetrahydro-2H-pyran-3-yl)acetamide]",0.096

# Same assay, conditions: progranulin induction assay; mouse pMG, primary cortical neurons and BV-2 cell lines named, cell type not given; ELISA-based readout; read-out: EC50
row,SMILES,EC50 [µM]
1,"CCO[C@H]1C[C@H](C(=O)N2CCc3ccccc3[C@@H]2c2ccc(F)cc2)OC[C@H]1N [Compound 5088, ((2R,4S,5R)-5-amino-4-ethoxytetrahydro-2H-pyran-2-yl)((S)-1-(4-fluorophenyl)-3,4-dihydroisoquinolin-2(1H)-yl)methanone]",0.074
2,"N[C@@H]1CO[C@@H](C(=O)N2CCc3ccccc3[C@@H]2c2ccc(F)cc2)C[C@@H]1OC(F)F [Compound 5089, ((2R,4S,5R)-5-amino-4-(difluoromethoxy)tetrahydro-2H-pyran-2-yl)((S)-1-(4-fluorophenyl)-3,4-dihydroisoquinolin-2(1H)-yl)methanone]",0.062
3,"N[C@@H]1C[C@H](C(=O)N2CCc3ccccc3[C@@H]2c2ccc(F)cc2)OC[C@H]1O [Compound 5092, ((2R,4R,5S)-4-amino-5-hydroxytetrahydro-2H-pyran-2-yl)((S)-1-(4-fluorophenyl)-3,4-dihydroisoquinolin-2(1H)-yl)methanone]",0.184
4,N[C@@H]1CC[C@H](C(=O)N2CCc3ccccc3[C@@H]2c2ccc(F)cc2F)OC1 [Compound 5207],0.182
5,"N[C@H]1CO[C@@H](C(=O)N2CCc3ccccc3[C@@H]2c2ccc(F)cc2)C[C@@H]1F [Compound 5210, ((2R,4S,5S)-5-amino-4-fluorotetrahydro-2H-pyran-2-yl)((S)-1-(4-fluorophenyl)-3,4-dihydroisoquinolin-2(1H)-yl)methanone]",0.596
6,"O=C([C@H]1CC[C@@H](NCCO)CO1)N1CCc2ccccc2[C@@H]1c1ccc(F)cc1 [Compound 5211, ((S)-1-(4-fluorophenyl)-3,4-dihydroisoquinolin-2(1H)-yl)((2R,5R)-5-((2-hydroxyethyl)amino)tetrahydro-2H-pyran-2-yl)methanone]",0.209
7,"COCCN[C@@H]1CC[C@H](C(=O)N2CCc3ccccc3[C@@H]2c2ccc(F)cc2)OC1 [Compound 5212, ((S)-1-(4-fluorophenyl)-3,4-dihydroisoquinolin-2(1H)-yl)((2R,5R)-5-((2-methoxyethyl)amino)tetrahydro-2H-pyran-2-yl)methanone]",0.314
8,"N[C@]1(CO)CC[C@@H](C(=O)N2CCc3ccccc3[C@@H]2c2ccc(F)cc2)OC1 [Compound 5213, ((2S,5S)-5-amino-5-(hydroxymethyl)tetrahydro-2H-pyran-2-yl)((S)-1-(4-fluorophenyl)-3,4-dihydroisoquinolin-2(1H)-yl)methanone]",0.401
9,"N[C@@]1(CO)CC[C@@H](C(=O)N2CCc3ccccc3[C@@H]2c2ccc(F)cc2)OC1 [Compound 5214, ((2S,5R)-5-amino-5-(hydroxymethyl)tetrahydro-2H-pyran-2-yl)((S)-1-(4-fluorophenyl)-3,4-dihydroisoquinolin-2(1H)-yl)methanone]",0.08
10,"N[C@@]1(CO)CC[C@H](C(=O)N2CCc3ccccc3[C@@H]2c2ccc(F)cc2)OC1 [Compound 5215, ((2R,5R)-5-amino-5-(hydroxymethyl)tetrahydro-2H-pyran-2-yl)((S)-1-(4-fluorophenyl)-3,4-dihydroisoquinolin-2(1H)-yl)methanone]",0.14
11,"N[C@]1(CO)CC[C@H](C(=O)N2CCc3ccccc3[C@@H]2c2ccc(F)cc2)OC1 [Compound 5216, ((2R,5S)-5-amino-5-(hydroxymethyl)tetrahydro-2H-pyran-2-yl)((S)-1-(4-fluorophenyl)-3,4-dihydroisoquinolin-2(1H)-yl)methanone]",0.295
12,C[C@]1(C(=O)N2CCc3ccccc3[C@@H]2c2ccc(F)cc2)CCNCCO1 [Compound 5239],0.316
13,C[C@@]1(C(=O)N2CCc3ccccc3[C@@H]2c2ccc(F)cc2)CCNCCO1 [Compound 5240],0.631
14,"O=C([C@@H]1OCCNC[C@@H]1O)N1CCc2ccccc2[C@@H]1c1ccc(F)cc1 [Compound 5243, ((S)-1-(4-fluorophenyl)-3,4-dihydroisoquinolin-2(1H)-yl)((6S,7R)-6-hydroxy-1,4-oxazepan-7-yl)methanone]",0.2
15,O=C([C@H]1OCCNC[C@@H]1O)N1CCc2ccccc2[C@@H]1c1ccc(F)cc1 [Compound 5244],0.091
16,O=C([C@@H]1OCCNC[C@H]1O)N1CCc2ccccc2[C@@H]1c1ccc(F)cc1 [Compound 5245],0.35
17,"CO[C@@H]1CO[C@@H](C(=O)N2CCc3ccccc3[C@@H]2c2ccc(F)cc2)C[C@H]1N [Compound 5247, ((2R,4R,5S)-4-amino-5-methoxytetrahydro-2H-pyran-2-yl)((S)-1-(4-fluorophenyl)-3,4-dihydroisoquinolin-2(1H)-yl)methanone]",0.095
18,"CCO[C@H]1CO[C@@H](C(=O)N2CCc3ccccc3[C@@H]2c2ccc(F)cc2)C[C@H]1N [Compound 5248, ((2R,4R,5R)-4-amino-5-ethoxytetrahydro-2H-pyran-2-yl)((S)-1-(4-fluorophenyl)-3,4-dihydroisoquinolin-2(1H)-yl)methanone]",0.032
19,"N[C@@H]1C[C@H](C(=O)N2CCc3ccccc3[C@@H]2c2ccc(F)cc2)OC[C@@H]1F [Compound 5250, ((2R,4R,5R)-4-amino-5-fluorotetrahydro-2H-pyran-2-yl)((S)-1-(4-fluorophenyl)-3,4-dihydroisoquinolin-2(1H)-yl)methanone]",0.095
20,"N[C@@H]1C[C@H](C(=O)N2CCc3ccccc3[C@@H]2c2ccc(F)cc2)OC[C@H]1F [Compound 5251, ((2R,4R,5S)-4-amino-5-fluorotetrahydro-2H-pyran-2-yl)((S)-1-(4-fluorophenyl)-3,4-dihydroisoquinolin-2(1H)-yl)methanone]",0.188

# The next lines start with the values.
row,EC50 [µM],SMILES
1,0.03,N[C@H]1CC[C@H](C(=O)N2CCc3ccccc3[C@@H]2c2ccc(F)cc2F)OC1 [Compound 5255]
2,0.1,N[C@@H]1CCO[C@@H](C(=O)N2CCc3ccccc3[C@@H]2c2ccc(F)cc2F)C1 [Compound 5256]
3,0.022,N[C@H]1C[C@H](C(=O)N2CCc3ccccc3[C@@H]2c2ccc(F)cc2F)OC[C@H]1O [Compound 5257]
4,0.062,N[C@@H]1CO[C@@H](C(=O)N2CCc3ccccc3[C@@H]2c2ccc(F)cc2F)C[C@@H]1O [Compound 5258]
5,0.046,CO[C@H]1C[C@H](C(=O)N2CCc3ccccc3[C@@H]2c2ccc(F)cc2F)OC[C@H]1N [Compound 5259]
6,0.079,CO[C@@H]1CO[C@@H](C(=O)N2CCc3ccccc3[C@@H]2c2ccc(F)cc2F)C[C@@H]1N [Compound 5261]
7,0.044,CCO[C@@H]1CO[C@@H](C(=O)N2CCc3ccccc3[C@@H]2c2ccc(F)cc2F)C[C@@H]1N [Compound 5262]
8,0.036,"O=C([C@H]1C[C@@H]2NCCO[C@H]2CO1)N1CCc2ccccc2[C@@H]1c1ccc(F)cc1 [Compound 5266, ((S)-1-(4-fluorophenyl)-3,4-dihydroisoquinolin-2(1H)-yl)((4aR,7R,8aS)-octahydropyrano[3,4-b][1,4]oxazin-7-yl)methanone]"
9,0.0001,"CC(C)O[C@H]1CO[C@@H](C(=O)N2CCc3ccccc3[C@@H]2c2ccc(F)cc2)C[C@@H]1N [Compound 5267, ((2R,4S,5R)-4-amino-5-isopropoxytetrahydro-2H-pyran-2-yl)((S)-1-(4-fluorophenyl)-3,4-dihydroisoquinolin-2(1H)-yl)methanone]"
10,0.736,"O=C([C@H]1CNCCO1)N1CCc2ccccc2[C@@H]1c1ccc(F)cc1 [Compound 5405, ((S)-1-(4-fluorophenyl)-3,4-dihydroisoquinolin-2(1H)-yl)((R)-morpholin-2-yl)methanone]"
11,0.715,"O=C([C@@H]1CNCCO1)N1CCc2ccccc2[C@@H]1c1ccc(F)cc1 [Compound 5406, ((S)-1-(4-fluorophenyl)-3,4-dihydroisoquinolin-2(1H)-yl)((S)-morpholin-2-yl)methanone]"
12,0.843,O=C([C@H]1OCCNC[C@H]1F)N1CCc2ccccc2[C@@H]1c1ccc(F)cc1 [Compound 5421]
13,0.186,"CS[C@@H]1CO[C@@H](C(=O)N2CCc3ccccc3[C@@H]2c2ccc(F)cc2)C[C@@H]1N [Compound 5425, ((2R,4S,5S)-4-amino-5-(methylthio)tetrahydro-2H-pyran-2-yl)((S)-1-(4-fluorophenyl)-3,4-dihydroisoquinolin-2(1H)-yl)methanone]"
14,0.441,"CS(=O)(=O)[C@@H]1CO[C@@H](C(=O)N2CCc3ccccc3[C@@H]2c2ccc(F)cc2)C[C@@H]1N [Compound 5426, ((2R,4S,5S)-4-amino-5-(methylsulfonyl)tetrahydro-2H-pyran-2-yl)((S)-1-(4-fluorophenyl)-3,4-dihydroisoquinolin-2(1H)-yl)methanone]"
